{"source": "patent US20230346827A1", "about": "(priority 2020, published 2023)", "key": {"[1]": {"system": "HUVEC + (IL-1β, TNFα and IFNy)", "experiment": "BioMAP 3C system", "type": "cell-based, human", "conditions": "annotated relative to vehicle controls", "text": "Cell types and stimuli used in each system are as follows: 3C system [HUVEC + (IL-1β, TNFα and IFNy)], 4H system [HUVEC + (IL-4 and histamine)], LPS system [PBMC and HUVEC + LPS (TLR4 ligand)], SAg system [PBMC and HUVEC + TCR ligands], BT system [CD19+ B cells and PBMC + (α-IgM and TCR ligands)], BF4T system [bronchial epithelial cells and HDFn + (TNFα and IL-4)], BE3C system [bronchial epithelial cells + (IL-1β, TNFα and IFNy)], CASM3C system [coronary artery smooth muscle cells + (IL-1 β, TNFα and IFNy)], HDF3CGF system [HDFn + (IL-1β, TNFα, IFNy, EGF, bFGF and PDGF-BB)], KF3CT system [keratinocytes and HDFn + (IL-1β, TNFα, IFNy and TGFβ)], MyoF system [differentiated lung myofibroblasts + (TNFα and TGFβ)] and Mphg system [HUVEC and M1 macrophages + Zymosan (TLR2 ligand)].\nSystems are derived from either single cell types or co-culture systems. Adherent cell types are cultured in 96 or 384-well plates until confluence, followed by the addition of PBMC (SAg and LPS systems). […] Soluble factors from supernatants are quantified using either HTRF® detection, bead-based multiplex immunoassay or capture ELISA. Overt adverse effects of test agents on cell proliferation and viability (cytotoxicity) are detected by sulforhodamine B (SRB) staining, for adherent cells, and alamarBlue® reduction for cells in suspension. […]"}, "human purified monocytes": {"system": "human purified monocytes", "experiment": "Stimulated IL-6 release from human purified monocytes (ELISA)", "type": "cell-based", "conditions": "24 h, LMW-DS 60-600 µg/ml, heparin 2.0-20 µg/ml, dexamethasone 3.0 µM", "procedure": "Peripheral blood mononuclear cells (PBMC) were isolated from healthy donors through Ficoll-Paque PLUS (GE Healthcare; 11778538) density centrifugation. Monocytes were purified using the EasySep™ human monocyte enrichment kit (StemCell) that purifies monocytes ‘untouched’ to maintain their phenotype.\nMonocytes were cultured in the absence (unstimulated PBS vehicle controls) or presence of stimulation (LPS or peptidoglycan) in the absence (vehicle) or presence of LMW-DS (Tikomed AB, Viken, Sweden, WO 2016/076780; three concentrations; top concentration 600 µg/ml, 200 µg/ml and 60 µg/ml), heparin (2.0, 6.0 or 20 µg/ml; equivalent to 0.406, 1.218 and 4.06 units/ml; Sigma Aldrich) or dexamethasone (3.0 µM; Sigma Aldrich) for 24 hours at 37° C., 5% CO2. Following centrifugation, cell culture supernatants were removed and stored at -20° C. awaiting analysis for IL-6 by ELISA. Levels of IL-6 were quantified in the supernatant by ELISA (R&D systems) according to manufacturer’s instructions."}, "[2]": {"system": "plasma hepatocyte growth factor (HGF)", "experiment": "Plasma HGF (ELISA) in ALS patients after s.c. LMW-DS 1 mg/kg weekly (Example 2)", "type": "in vivo, human", "conditions": "1 mg/kg s.c.", "procedure": "This was a single-center, open single-arm study where the safety, tolerability and efficacy of subcutaneous (s.c.) administered LMW-DS was evaluated in patients with ALS. There were 10 planned visits to the clinic: 1 screening visit divided in 2 parts (Visit 1a and Visit 1b), 5 investigational medicinal product (IMP) administration visits (Visit 2 to Visit 6) and 3 follow-up visits (Visit 7 to Visit 9). Each individual patient’s study participation was planned to be approximately 4 months, including the screening and follow-up visits.\nThe active pharmaceutical ingredient of the IMP was a low molecular weight dextran sulfate (LMW-DS), (ILB®, Tikomed AB, Viken, Sweden, WO 2016/076780). The drug was used as a solution for s.c. injection and consisted of 20 mg/mL LMW-DS and 9 mg/mL NaCl. Each glass vial contained 10 mL. The dose administered depended on the patient’s body weight at Visit 2, prior to the first LMW-DS administration. LMW-DS was injected s.c. on alternating sides of the abdomen, thigh or the buttock (in that order of priority). Five injections of 1 mg/kg, with 1 week dosing interval, were administered. Changes in immunoreactive HGF were measured by commercial ELISA (R&D HGF ELISA) from blood samples taken at each visit."}}}
{"substance": "sodium salt of dextran sulfate [LMW-DS]", "values": [{"measurement": "Increased biomarker activity", "setting": "[1]", "result": "IL-8"}, {"measurement": "LPS-stimulated IL-6 release", "setting": "human purified monocytes; LPS 0.01 ng/ml", "result": "concentration dependent statistically significant inhibition"}, {"measurement": "peptidoglycan-stimulated IL-6 release", "setting": "human purified monocytes; peptidoglycan 30 ng/ml", "result": "concentration dependent statistically significant increase"}, {"measurement": "time of maximum peak of plasma HGF after LMW-DS administration", "setting": "[2]", "result": "about 2 hr"}]}
